In ChEMBL document CHEMBL1201861, “Genomics of Drug Sensitity in Cancer screening data, Wellcome Trust Sanger Institute”:

Assays:
Test in all cases: cells
Assay type in all cases: functional, cell-based
Conditions in all cases: Homo sapiens
L-428 = system: L-428
Description: SANGER: Inhibition of human L-428 cell growth in a cell viability assay.

Becker = system: Becker;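 also: growth inhibition of Becker cells, read out with a cell viability assay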
Description: SANGER: Inhibition of human Becker cell growth in a cell viability assay.

KNS-81-FD = system: KNS-81-FD;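 also: growth inhibition of KNS-81-FD cells, read out with a cell viability assay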
Description: SANGER: Inhibition of human KNS-81-FD cell growth in a cell viability assay.

KINGS-1 = system: KINGS-1;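 also: cell viability assay measuring suppression of KINGS-1 cell growth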
Description: SANGER: Inhibition of human KINGS-1 cell growth in a cell viability assay.

SNU-C2B = system: SNU-C2B;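 also: cell viability readout used to measure compound-driven suppression of SNU-C2B cell proliferation, IC50 marking half-maximal growth inhibition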
Description: SANGER: Inhibition of human SNU-C2B cell growth in a cell viability assay.

SNB-75 = system: SNB-75;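 also: cell viability assay measuring growth inhibition of human SNB-75 cells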
Description: SANGER: Inhibition of human SNB75 cell growth in a cell viability assay.

NCI-H69 = system: NCI-H69;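 also: growth inhibition of the cell line, read out with a cell viability assay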
Description: SANGER: Inhibition of human NCI-H69 cell growth in a cell viability assay.

NCI-H1395 = system: NCI-H1395;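 also: cell viability assay read-out quantifying reduced proliferation of human NCI-H1395 cells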
Description: SANGER: Inhibition of human NCI-H1395 cell growth in a cell viability assay.

COLO-800 = system: COLO-800;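 also: growth inhibition of COLO-800 cells, read out with a cell viability assay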
Description: SANGER: Inhibition of human COLO-800 cell growth in a cell viability assay.

RH-1 = system: RH-1;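 also: growth inhibition of human RH-1 cells, read out with a cell viability assay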
Description: SANGER: Inhibition of human RH-1 cell growth in a cell viability assay.

SK-N-DZ = system: SK-N-DZ;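 also: growth inhibition of the cancer cell line, read out through a viability assay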
Description: SANGER: Inhibition of human SK-N-DZ cell growth in a cell viability assay.

AM-38 = system: AM-38;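 also: growth inhibition of AM-38 cells of human origin, read out by a cell viability assay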
Description: SANGER: Inhibition of human AM-38 cell growth in a cell viability assay.

NCI-H1650 = system: NCI-H1650;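 also: growth inhibition of human NCI-H1650 cells measured by a cell viability assay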
Description: SANGER: Inhibition of human NCI-H1650 cell growth in a cell viability assay.

NB10 = system: NB10;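 also: growth inhibition of NB10 cells, read out by a cell viability assay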
Description: SANGER: Inhibition of human NB10 cell growth in a cell viability assay.

U-266 = system: U-266
Description: SANGER: Inhibition of human U-266 cell growth in a cell viability assay.

HDLM-2 = system: HDLM-2;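 also: cell viability assay measuring suppression of HDLM-2 proliferation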
Description: SANGER: Inhibition of human HDLM-2 cell growth in a cell viability assay.

NB13 = system: NB13;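 also: cell viability readout measuring growth inhibition of human NB13 cells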
Description: SANGER: Inhibition of human NB13 cell growth in a cell viability assay.

COLO-320-HSR = system: COLO-320-HSR;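 also: growth inhibition of COLO-320-HSR cells, determined with a cell viability assay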
Description: SANGER: Inhibition of human COLO-320-HSR cell growth in a cell viability assay.

DMS-114 = system: DMS-114
A101D = system: A101D;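 also: growth inhibition of the cell line, measured with a viability assay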
Description: SANGER: Inhibition of human A101D cell growth in a cell viability assay.

TE-9 = system: TE-9;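 also: cell growth inhibition, measured with a cell viability readout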
Description: SANGER: Inhibition of human TE-9 cell growth in a cell viability assay.

NCI-H226 = system: NCI-H226;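 also: cell viability read-out used to gauge growth inhibition of the cells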
Description: SANGER: Inhibition of human NCI-H226 cell growth in a cell viability assay.

NEC8 = system: NEC8;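 also: growth inhibition of human NEC8 cells, read out by a cell viability assay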
Description: SANGER: Inhibition of human NEC8 cell growth in a cell viability assay.

CTB-1 = system: CTB-1
Description: SANGER: Inhibition of human CTB-1 cell growth in a cell viability assay.

TGBC24TKB = system: TGBC24TKB;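 also: growth inhibition of human TGBC24TKB cells, read out with a cell viability assay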
Description: SANGER: Inhibition of human TGBC24TKB cell growth in a cell viability assay.

LB1047-RCC = system: LB1047-RCC;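 also: inhibition of cell growth, determined with a cell viability assay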
Description: SANGER: Inhibition of human LB1047-RCC cell growth in a cell viability assay.

MC116 = system: MC116;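 also: growth inhibition of MC116 cells, read out with a cell viability assay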
Description: SANGER: Inhibition of human MC116 cell growth in a cell viability assay.

TE-8 = system: TE-8;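 also: growth inhibition of TE-8 cells, measured with a cell viability readout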
Description: SANGER: Inhibition of human TE-8 cell growth in a cell viability assay.

ES1 = system: ES1;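 also: growth inhibition of ES1 cells, read out with a cell viability assay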
Description: SANGER: Inhibition of human ES1 cell growth in a cell viability assay.

SK-LMS-1 = system: SK-LMS-1;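 also: growth inhibition of human SK-LMS-1 cells, read out with a cell viability assay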
Description: SANGER: Inhibition of human SK-LMS-1 cell growth in a cell viability assay.

CTV-1 = system: CTV-1;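 also: growth inhibition of the cell line, read out with a cell viability assay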
Description: SANGER: Inhibition of human CTV-1 cell growth in a cell viability assay.

GB-1 = system: GB-1;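 also: growth of GB-1 cells judged by a viability assay, IC50 marks the concentration inhibiting growth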
Description: SANGER: Inhibition of human GB-1 cell growth in a cell viability assay.

TGBC1TKB = system: TGBC1TKB;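 also: growth inhibition of TGBC1TKB cells, read out by a cell viability assay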
Description: SANGER: Inhibition of human TGBC1TKB cell growth in a cell viability assay.

DSH1 = system: DSH1;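 also: growth inhibition of human DSH1 cells, measured with a cell viability readout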
Description: SANGER: Inhibition of human DSH1 cell growth in a cell viability assay.

GR-ST = system: GR-ST
Description: SANGER: Inhibition of human GR-ST cell growth in a cell viability assay.

LB2241-RCC = system: LB2241-RCC;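 also: cell viability assay measuring how strongly the cultured human renal carcinoma line is prevented from growing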
Description: SANGER: Inhibition of human LB2241-RCC cell growth in a cell viability assay.

EM-2 = system: EM-2;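 also: growth inhibition of EM-2 cells, read out with a cell viability assay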
Description: SANGER: Inhibition of human EM-2 cell growth in a cell viability assay.

KNS-42 = system: KNS-42;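 also: growth inhibition of KNS-42 cells, read out with a cell viability assay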
Description: SANGER: Inhibition of human KNS-42 cell growth in a cell viability assay.

CGTH-W-1 = system: CGTH-W-1;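 also: growth inhibition of human CGTH-W-1 cells measured by cell viability assay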
Description: SANGER: Inhibition of human CGTH-W-1 cell growth in a cell viability assay.

MSTO-211H = system: MSTO-211H
Description: SANGER: Inhibition of human MSTO-211H cell growth in a cell viability assay.

NCI-H747 = system: NCI-H747;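 also: growth inhibition of human NCI-H747 cells, read out by a cell viability assay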
Description: SANGER: Inhibition of human NCI-H747 cell growth in a cell viability assay.

KY821 = system: KY821;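 also: growth inhibition of human KY821 cells, read out by a cell viability assay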
Description: SANGER: Inhibition of human KY821 cell growth in a cell viability assay.

BB30-HNC = system: BB30-HNC;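 also: growth inhibition of the cultured cell line, read out by a cell viability assay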
Description: SANGER: Inhibition of human BB30-HNC cell growth in a cell viability assay.

ALL-PO = system: ALL-PO;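 also: growth inhibition of ALL-PO cells, read out by a cell viability assay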
Description: SANGER: Inhibition of human ALL-PO cell growth in a cell viability assay.

COLO-668 = system: COLO-668
Description: SANGER: Inhibition of human COLO-668 cell growth in a cell viability assay.

Mo = system: Mo
Description: SANGER: Inhibition of human Mo-T cell growth in a cell viability assay.

TE-12 = system: TE-12;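 also: growth inhibition of TE-12 cells, read out by a cell viability assay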
Description: SANGER: Inhibition of human TE-12 cell growth in a cell viability assay.

HCC1187 = system: HCC1187;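 also: growth inhibition of HCC1187 cells, read out with a cell viability assay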
Description: SANGER: Inhibition of human HCC1187 cell growth in a cell viability assay.

A388 = system: A388;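 also: growth inhibition of human A388 cells, read out with a cell viability assay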
Description: SANGER: Inhibition of human A388 cell growth in a cell viability assay.

SF-539 = system: SF-539;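 also: Read-out is a cell viability assay, with IC50 reflecting inhibition of cell growth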
Description: SANGER: Inhibition of human SF539 cell growth in a cell viability assay.

HOP-62 = system: HOP-62;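 also: cell growth inhibition determined with a viability assay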
Description: SANGER: Inhibition of human HOP-62 cell growth in a cell viability assay.

MFM-223 = system: MFM-223
Description: SANGER: Inhibition of human MFM-223 cell growth in a cell viability assay.

NCI-H1355 = system: NCI-H1355;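 also: growth inhibition of human NCI-H1355 cells, read out by a cell viability assay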
Description: SANGER: Inhibition of human NCI-H1355 cell growth in a cell viability assay.

HC-1 = system: HC-1;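 also: growth inhibition of HC-1 cells measured by a cell viability assay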
Description: SANGER: Inhibition of human HC-1 cell growth in a cell viability assay.

EOL1 = system: EOL1;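 also: growth inhibition of EoL-1 cells, read out by a cell viability assay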
Description: SANGER: Inhibition of human EoL-1-cell cell growth in a cell viability assay.

RKO = system: RKO;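 also: growth inhibition of human RKO cells, read out with a cell viability assay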
Description: SANGER: Inhibition of human RKO cell growth in a cell viability assay.

HD-MY-Z = system: HD-MY-Z;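 also: growth inhibition of HD-MY-Z cells, read out with a cell viability assay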
Description: SANGER: Inhibition of human HD-MY-Z cell growth in a cell viability assay.

HCC2218 = system: HCC2218;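 also: cell viability assay read-out, with IC50 given as the concentration that inhibits growth of the cell line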
Description: SANGER: Inhibition of human HCC2218 cell growth in a cell viability assay.

LS-1034 = system: LS-1034
Description: SANGER: Inhibition of human LS-1034 cell growth in a cell viability assay.

CAS-1 = system: CAS-1
Description: SANGER: Inhibition of human CAS-1 cell growth in a cell viability assay.

SJSA-1 = system: SJSA-1
Description: SANGER: Inhibition of human SJSA-1 cell growth in a cell viability assay.

LAMA-84 = system: LAMA-84
Description: SANGER: Inhibition of human LAMA-84 cell growth in a cell viability assay.

NCI-H82 = system: NCI-H82
Description: SANGER: Inhibition of human NCI-H82 cell growth in a cell viability assay.

SF-126 = system: SF-126
Description: SANGER: Inhibition of human SF126 cell growth in a cell viability assay.

NCI-H720 = system: NCI-H720
Description: SANGER: Inhibition of human NCI-H720 cell growth in a cell viability assay.

KGN = system: KGN
Description: SANGER: Inhibition of human KGN cell growth in a cell viability assay.

Structure (SMILES): Cc1nc(Nc2ncc(C(=O)Nc3c(C)cccc3Cl)s2)cc(N2CCN(CCO)CC2)n1 [DASATINIB]
- IC50 (L-428): > 1280 nM
- IC50 (Becker): 30 nM
- IC50 (KNS-81-FD): > 1280 nM
- IC50 (KINGS-1): 167 nM
- IC50 (SNU-C2B): > 1280 nM
- IC50 (SNB-75): 44.4 nM
- IC50 (NCI-H69): > 1280 nM
- IC50 (NCI-H1395): > 1280 nM
- IC50 (COLO-800): > 1280 nM
- IC50 (RH-1): > 1280 nM
- IC50 (SK-N-DZ): > 1280 nM
- IC50 (AM-38): > 1280 nM
- IC50 (NCI-H1650): > 1280 nM
- IC50 (NB10): > 1280 nM
- IC50 (U-266): > 1280 nM
- IC50 (HDLM-2): > 1280 nM
- IC50 (NB13): > 1280 nM
- IC50 (COLO-320-HSR): > 1280 nM
- IC50 (DMS-114): > 1280 nM
- IC50 (A101D): 1030 nM
- IC50 (TE-9): 875 nM
- IC50 (NCI-H226): > 1280 nM
- IC50 (NEC8): > 1280 nM
- IC50 (CTB-1): > 1280 nM
- IC50 (TGBC24TKB): 47.6 nM
- IC50 (LB1047-RCC): 9.89 nM
- IC50 (MC116): 114 nM
- IC50 (TE-8): 15.8 nM
- IC50 (ES1): > 1280 nM
- IC50 (SK-LMS-1): > 1280 nM
- IC50 (CTV-1): < 5 nM
- IC50 (GB-1): 21.6 nM
- IC50 (TGBC1TKB): 61.6 nM
- IC50 (DSH1): 240 nM
- IC50 (GR-ST): > 1280 nM
- IC50 (LB2241-RCC): > 1280 nM
- IC50 (EM-2): < 5 nM
- IC50 (KNS-42): 1240 nM
- IC50 (CGTH-W-1): 35.5 nM
- IC50 (MSTO-211H): > 1280 nM
- IC50 (NCI-H747): 83.6 nM
- IC50 (KY821): > 1280 nM
- IC50 (BB30-HNC): 54.4 nM
- IC50 (ALL-PO): > 1280 nM
- IC50 (COLO-668): > 1280 nM
- IC50 (Mo): > 1280 nM
- IC50 (TE-12): 18.6 nM
- IC50 (HCC1187): > 1280 nM
- IC50 (A388): 50.9 nM
- IC50 (SF-539): > 1280 nM
- IC50 (HOP-62): 18.3 nM
- IC50 (MFM-223): > 1280 nM
- IC50 (NCI-H1355): 110 nM
- IC50 (HC-1): > 1280 nM
- IC50 (EOL1): < 5 nM
- IC50 (RKO): 530 nM
- IC50 (HD-MY-Z): > 1280 nM
- IC50 (HCC2218): > 1280 nM
- IC50 (LS-1034): > 1280 nM
- IC50 (CAS-1): > 1280 nM
- IC50 (SJSA-1): > 1280 nM
- IC50 (LAMA-84): < 5 nM
- IC50 (NCI-H82): > 1280 nM
- IC50 (SF-126): 354 nM
- IC50 (NCI-H720): > 1280 nM
- IC50 (KGN): 19.4 nM

Structure (SMILES): C[C@]12O[C@H](C[C@]1(O)CO)n1c3ccccc3c3c4c(c5c6ccccc6n2c5c31)CNC4=O [LESTAURTINIB]
- IC50 (L-428): > 2000 nM
- IC50 (Becker): 724 nM
- IC50 (KNS-81-FD): 1480 nM
- IC50 (KINGS-1): 547 nM
- IC50 (SNU-C2B): 1120 nM
- IC50 (SNB-75): 1490 nM
- IC50 (NCI-H69): > 2000 nM
- IC50 (NCI-H1395): 281 nM
- IC50 (COLO-800): 190 nM
- IC50 (RH-1): 149 nM
- IC50 (SK-N-DZ): 258 nM
- IC50 (AM-38): > 2000 nM
- IC50 (NCI-H1650): > 2000 nM
- IC50 (NB10): 338 nM
- IC50 (U-266): 145 nM
- IC50 (HDLM-2): > 2000 nM
- IC50 (NB13): 469 nM
- IC50 (COLO-320-HSR): > 2000 nM
- IC50 (DMS-114): 1520 nM
- IC50 (A101D): 67 nM
- IC50 (TE-9): 415 nM
- IC50 (NCI-H226): > 2000 nM
- IC50 (NEC8): 268 nM
- IC50 (CTB-1): 497 nM
- IC50 (TGBC24TKB): > 2000 nM
- IC50 (LB1047-RCC): 76.9 nM
- IC50 (MC116): 190 nM
- IC50 (TE-8): 667 nM
- IC50 (ES1): 95.3 nM
- IC50 (SK-LMS-1): > 2000 nM
- IC50 (CTV-1): 189 nM
- IC50 (GB-1): 238 nM
- IC50 (TGBC1TKB): > 2000 nM
- IC50 (DSH1): 992 nM
- IC50 (GR-ST): 494 nM
- IC50 (LB2241-RCC): 125 nM
- IC50 (EM-2): 450 nM
- IC50 (KNS-42): > 2000 nM
- IC50 (CGTH-W-1): 43.6 nM
- IC50 (MSTO-211H): 439 nM
- IC50 (NCI-H747): 1050 nM
- IC50 (KY821): 159 nM
- IC50 (BB30-HNC): 935 nM
- IC50 (ALL-PO): 172 nM
- IC50 (COLO-668): > 2000 nM
- IC50 (Mo): > 2000 nM
- IC50 (TE-12): > 2000 nM
- IC50 (HCC1187): > 2000 nM
- IC50 (A388): > 2000 nM
- IC50 (SF-539): 175 nM
- IC50 (HOP-62): > 2000 nM
- IC50 (MFM-223): 333 nM
- IC50 (NCI-H1355): > 2000 nM
- IC50 (HC-1): 922 nM
- IC50 (EOL1): 8.69 nM
- IC50 (RKO): 299 nM
- IC50 (HD-MY-Z): 13.9 nM
- IC50 (HCC2218): > 2000 nM
- IC50 (LS-1034): > 2000 nM
- IC50 (CAS-1): > 2000 nM
- IC50 (SJSA-1): 216 nM
- IC50 (LAMA-84): 48.5 nM
- IC50 (NCI-H82): > 2000 nM
- IC50 (SF-126): 273 nM
- IC50 (NCI-H720): 48.5 nM
- IC50 (KGN): 138 nM
